Reference: ChEMBL document CHEMBL2413062, “Effect of single pyrrole replacement with β-alanine on DNA binding affinity and sequence specificity of hairpin pyrrole/imidazole polyamides targeting 5'-GCGC-3'” (Bioorg Med Chem, 2013)

Assays:
[1] = Selectivity ratio of Kd for mismatched hair pin DNA ODN3 5'-XGCCAGCACGGCTTTTGCCGTGCTGGC-3' (unknown origin) to Kd for hair pin DNA ODN1 5'-XGCCAGCGCGGCTTTTGCCGCGCTGGC-3' (unknown origin)
[2] = Binding affinity to hair pin DNA ODN2 5'-XGCCAGTGCGGCTTTTGCCGCACTGGC-3' (unknown origin) by surface plasmon resonance analysis
[3] = Selectivity ratio of Kd for mismatched hair pin DNA ODN4 5'-XGCCATGACGGCTTTTGCCGTACTGGC-3' (unknown origin) to Kd for hair pin DNA ODN1 5'-XGCCAGCGCGGCTTTTGCCGCGCTGGC-3' (unknown origin)
[4] = Binding affinity to hair pin DNA ODN1 5'-XGCCAGCGCGGCTTTTGCCGCGCTGGC-3' (unknown origin) by surface plasmon resonance analysis
[5] = Binding affinity to hair pin DNA ODN3 5'-XGCCAGCACGGCTTTTGCCGTGCTGGC-3' (unknown origin) by surface plasmon resonance analysis
[6] = Binding affinity to hair pin DNA ODN4 5'-XGCCATGACGGCTTTTGCCGTACTGGC-3' (unknown origin) by surface plasmon resonance analysis
[7] = Selectivity ratio of Kd for mismatched hair pin DNA ODN2 5'-XGCCAGTGCGGCTTTTGCCGCACTGGC-3' (unknown origin) to Kd for hair pin DNA ODN1 5'-XGCCAGCGCGGCTTTTGCCGCGCTGGC-3' (unknown origin)

Compound	Ratio [1]	Kd [2]	Ratio [3]	Kd [4]	Kd [5]	Kd [6]	Ratio [7]
CN(C)CCCNC(=O)CCNC(=O)c1cc(NC(=O)c2nc(NC(=O)c3cc(NC(=O)c4nc(NC(=O)CCCNC(=O)c5cc(NC(=O)c6nc(NC(=O)c7cc(NC(=O)c8nc(NC(=O)CCNC(=O)CCN)cn8C)cn7C)cn6C)cn5C)cn4C)cn3C)cn2C)cn1C	230	68000 nM	300	270 nM	63000 nM	82000 nM	250
CN(C)CCCNC(=O)CCNC(=O)c1cc(NC(=O)c2nc(NC(=O)c3cc(NC(=O)c4nc(NC(=O)CCCNC(=O)c5cc(NC(=O)c6nc(NC(=O)CCNC(=O)c7nc(NC(=O)CCNC(=O)CCN)cn7C)cn6C)cn5C)cn4C)cn3C)cn2C)cn1C	–	89 nM	–	0.44 nM	11 nM	47 nM	–
CN(C)CCCNC(=O)CCNC(=O)c1cc(NC(=O)c2nc(NC(=O)CCNC(=O)c3nc(NC(=O)CCCNC(=O)c4cc(NC(=O)c5nc(NC(=O)c6cc(NC(=O)c7nc(NC(=O)CCNC(=O)CCN)cn7C)cn6C)cn5C)cn4C)cn3C)cn2C)cn1C	120	11 nM	270	0.7 nM	83 nM	190 nM	16
CN(C)CCCNC(=O)CCNC(=O)c1cc(NC(=O)c2nc(NC(=O)CCNC(=O)c3nc(NC(=O)CCCNC(=O)c4cc(NC(=O)c5nc(NC(=O)CCNC(=O)c6nc(NC(=O)CCNC(=O)CCN)cn6C)cn5C)cn4C)cn3C)cn2C)cn1C	17	11 nM	29	0.63 nM	11 nM	18 nM	17
